Reference: patent publication US5622933A, “Multiple branch peptide constructions for use against HIV” (priority 1993, dated 1997)

Columns and labels:
HIV [1] = assay: Infection of HT-29 human colon cells through the GalCer receptor; assay type: cell-based
Procedure: The activity of MBPCs was evaluated on this alternative infection route as follows: HT-29 cells (5×10^5 cells) were incubated with MBPCs (5×10^-6 M) for 45 minutes and subsequently exposed to 100 TCID50 of HIV-1 (LAI), HIV-1 (NDK) or HIV-2 (ROD) for 1 hour at 37° C. The residual inoculum was inactivated by three successive trypsinations and infection was assessed by: i) direct measurement of HIV-1 p24^gag (for HIV-1 isolates) and RT activity (for HIV-1 and HIV-2 isolates) in the culture supernatants; ii) co-cultivation with human PBLs. The cells were treated with the MBPCs as follows: 1- none; 2- [GPGRAF]8 -MLC; 3- [GPGRAF]8 -MLCD; 4- [GPG(R)DAF]8 -MLC; 5- [GPGRAF]16 -MLC; 6- [[…]]4 -MLC; and 7- [[…]]4 -MLC, with all amino acids in L form unless noted otherwise. The results shown in FIG. 5A, which correspond to infection with HIV-1 (NDK), are representative of three separate experiments and the MBPC used is indicated by the number on the x-axis. The concentration of p24^gag (pg/ml) was measured during the co-culture experiment with PBLs (+++, >10 ng/ml 10 days post-infection; ++, >1 ng/ml 13 days post-infection; +, >1 ng/ml 16 days post-infection; -, no detectable p24^gag 1 month post-infection). Similar results were obtained with HIV-1 (LAI) and HIV-2 (ROD).

GalCer receptor = assay: Binding of gp120 to GalCer (HPTLC binding assay)
Procedure: In another experiment with the same MBPCs, the effect of MBPCs on the binding of gp120 to GalCer was analyzed using a high performance thin layer chromatography (HPTLC) binding assay. MBPCs (10^-4 M) were preincubated with GalCer for 1 hour at room temperature. After thorough washing, the HPTLC plates were incubated with HIV-1 recombinant gp120 (2.5 ug/ml) followed by rabbit anti-gp120 and ^125 I-goat anti-rabbit IgG. The plates were washed in PBS and exposed to Amersham Hyperfilm MP for 8 hours. As shown in FIG. 5B treatment of HT-29 cells with active MBPCs protected the cells from infection by HIV-1 (NDK isolate). This antiviral effect was correlated with its ability to block the binding of gp120 to GalCer.

HIV [2] = assay: Inhibition of syncytia formation induced by HIV (summary statements); assay type: cell-based
Procedure: CEM or C8166 cells were chronically infected with HIV-1 Lai or HIV-2 Rod, or HIV-1MN, respectively. Infected cells (1×10^4) were incubated for 2 hours with various concentrations of MBPCs in 96-well plates. Uninfected Molt-4 cells (4×10^4) were then added in […]. Syncytia were counted after 18 hours at 37° C.

(GPGRAF)16 -(K)8 -(K)4 -(K)2 -K-βA-OH [MBPC.12]
block of the infectivity of HIV on human colon cells (HIV [1]): completely block | binding to / activity on the Galactosyl Ceramide receptor (GalCer receptor): bind to the second receptor | MBPC concentration with which inhibiting effect on syncytia formation was observed in vitro (HIV [2]): around 10^-6 M | inhibiting effect on syncytia formation, in words (HIV [2]): results similar to those of MBPC.3
